Results published in patent US4670419A, “Pharmaceutical composition and its rectal use” (Takeda Chemical Industries, Ltd., priority 1982, dated 1987).

Assays:
[1] = rat, in vivo
Description: (§1) SD-strain mature female rats (weighing about 270 g, 14 to 18 weeks old, in groups of 4 to 5 individuals) at diestrus as selected by the vaginal smear test covering a period of at least one week are anesthetized with pentobarbital and phenobarbital at 8-11 a.m., and a solution prepared by dissolving 500 μg of TAP-144 and 20 mg (2%), 50 mg (5%) or 100 mg (10%) of α-cyclodextrin in physiological saline in an amount to make 1 ml is administered into the vagina with about 12 mg of cotton soaked therewith at the dose level of 0.2 ml/kg (corresponding 100 μg/kg of TAP-144).

[2] = in vivo; details: rat, 100 ug/kg, Concentration in Serum
Description: In 0.1 ml of physiological saline are dissolved 100 μg of TAP-144 and 5 mg of α-cyclodextrin, and in the manner of Experimental Example 1, the 0.1 ml/kg equivalent of the solution is administered into the nasal cavity (the dose of TAP-144: 100 μg/kg).

[3] = in vivo; details: female, SD, rat, iv, 100 ug/kg
Description: as §1

promotion of vaginal absorption as compared with the control vaginal preparation [1]: about 6 times
Concentration of TAP-144 in serum ([1]; 100 ug/kg, 0.5 h): 32.1 ng/mL
level at 0.5 h ([2]; SD (Sprague-Dawley), sc): 44 ng/mL
level at 1 h ([2]; SD (Sprague-Dawley), sc): 40.2 ng/mL
level at 2 h ([2]; SD (Sprague-Dawley), sc): 24 ng/mL
level at 4 h ([2]; SD (Sprague-Dawley), sc): 6.7 ng/mL
level at 0.5 h ([2]; SD, inhaled or intranasal): 3.2 ng/mL
level at 4 h ([2]; SD, inhaled or intranasal): 3.9 ng/mL
level at 5 min [3]: 212 ng/mL
level at 10 min [3]: 173 ng/mL
level at 0.5 h [3]: 74.2 ng/mL
level at 1 h [3]: 39.3 ng/mL
level at 2 h [3]: 6.76 ng/mL
level at 4 h [3]: 1.83 ng/mL
level at 6 h [3]: < 0.13 ng/mL
SMILES: CCNC(=O)[C@@H]1CCCN1C(=O)[C@H](CCCNC(=N)N)NC(=O)[C@H](CC(C)C)NC(=O)[C@@H](CC(C)C)NC(=O)[C@H](Cc1ccc(O)cc1)NC(=O)[C@H](CO)NC(=O)[C@H](Cc1c[nH]c2ccccc12)NC(=O)[C@H](Cc1c[nH]cn1)NC(=O)[C@@H]1CCC(=O)N1 [TAP-144]
